# Experimental data: PMC8391421, “Identification of Novel Positive Allosteric Modulators of Neurotrophin Receptors for the Treatment of Cognitive Dysfunction” (Cells, 2021)
# What was measured:
# TrkB = biological target: T1, TrkB (Homo sapiens, UniProt Q16620); test: TrkB PathHunter cell-based assay (U2OS-TrkB/p75)
# T1 construct: host or cells: U2OS (human osteosarcoma), co-expressing p75 and SHC-1 fused to the enzyme acceptor
# Description: U2OS cells were maintained subconfluent in EMEM supplemented with 10% FBS and penicillin/streptomycin/hygromycin and G418. One day prior to the experiment, 5000 cells of EMEM supplemented with 0.5% horse serum were seeded in each well of a 384-well white plate. The assay was performed as previously described. Briefly, the TrkA or TrkB cell-based PathHunter® assays use enzyme fragment complementation (EFC) technology for the complementation of two β-galactosidase (β-gal) fragments in order to study protein–protein interactions. Upon activation with ligand, TrkA or TrkB are phosphorylated on several tyrosine residues, including tyrosine 490, leading to an interaction with SHC-1. In the PathHunter® assays, the Trk-receptors are fused to an enzyme donor tag, and SHC-1 is fused to a larger part of β-gal called an enzyme acceptor. The interactions between the recombinant enzyme donor, i.e., the Trk-receptor, with an enzyme acceptor, i.e., SHC-1, leads to an active β-gal enzyme. The functional (complemented) β-gal will hydrolyze a substrate to generate a luminescence signal. The generated luminescence was read using an EnVision plate reader from PerkinElmer, Upplands Väsby, Sweden, or an ID5 plate reader from Molecular Devices, Berkshire, RG41 5TS UK. […] Min- and Max-control wells were included on each plate. A compound was considered a hit if the percent activation was more than 50% and if the value was two standard deviations higher than the mean value of all of the samples on the plate. The average activation of all of samples on 10 different 384-well plates was 31%. […] Due to the risk of adverse events with the systemic administration of TrkA agonists, the screen and the re-screen processes were designed to increase the likelihood of identifying the positive modulators of NGF-signaling rather than identifying TrkA agonists. Based on the results of the re-screen, in combination with the physical–chemical properties of the molecules, a collection of hits was used for the EC50 determinations.
# Both Toltrazuril and Ponazuril are registered veterinary products prescribed for parasitic infections in animals. […] The cellular response to NGF or BDNF was measured using PathHunter® assays employing β-gal enzyme fragment complementation technology. The activation of Trk-receptors leads to an intracellular interaction between the Trk-receptor and SHC-1 and thereby to the complementation of β-gal, which will render in a functional enzyme. β-gal will hydrolyze a substrate to generate luminescence, which is proportional to the number of activated receptors. […]
# full-length TrkA-HA = biological target: T2, full-length TrkA-HA (Homo sapiens, UniProt P04629); test: Kinase activity assay of immunoprecipitated HA-tagged full length TrkA (LANCE TR-FRET); assay type: biochemical; settings: 5 µM compound, increasing ATP, vs DMSO
# T2 construct: Full-length TrkA with a HA-tag (TrkA-HA) fused to the C-terminus; A6 used the anti-HA immunoprecipitate and A14 the 12,000 x g lysate supernatant
# T2 sequence (P04629 33-796): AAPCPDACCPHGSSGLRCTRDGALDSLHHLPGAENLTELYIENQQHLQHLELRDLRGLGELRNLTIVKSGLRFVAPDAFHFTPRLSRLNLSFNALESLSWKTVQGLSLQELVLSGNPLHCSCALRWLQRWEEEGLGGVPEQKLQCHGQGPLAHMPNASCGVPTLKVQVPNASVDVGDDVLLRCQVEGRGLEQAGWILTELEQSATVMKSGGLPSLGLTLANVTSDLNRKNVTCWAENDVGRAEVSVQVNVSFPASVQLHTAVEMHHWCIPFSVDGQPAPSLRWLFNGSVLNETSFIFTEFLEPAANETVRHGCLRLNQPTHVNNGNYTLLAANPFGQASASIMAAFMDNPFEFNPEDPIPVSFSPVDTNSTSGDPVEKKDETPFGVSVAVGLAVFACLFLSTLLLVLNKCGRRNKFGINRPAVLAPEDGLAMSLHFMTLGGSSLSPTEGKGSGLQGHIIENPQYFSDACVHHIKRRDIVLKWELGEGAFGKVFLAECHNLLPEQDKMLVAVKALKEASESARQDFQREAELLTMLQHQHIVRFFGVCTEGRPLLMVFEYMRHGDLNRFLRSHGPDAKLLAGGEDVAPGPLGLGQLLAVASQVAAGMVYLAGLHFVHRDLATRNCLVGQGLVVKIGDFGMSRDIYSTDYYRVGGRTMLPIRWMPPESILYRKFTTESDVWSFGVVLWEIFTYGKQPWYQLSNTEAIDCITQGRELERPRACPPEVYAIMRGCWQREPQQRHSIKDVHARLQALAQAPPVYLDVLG
# Description: A cDNA expression plasmid (pCMV3) with C-terminal-HA tagged human NTRK1 cDNA subcloned between the HindIII and XbaI sites was obtained from SinoBiological (NordicBiosite, Sweden). The human neuroblastoma cell line SH-SY5Y (ATCC, LGC Standards GmbH, Wesel, Germany) was transfected with lipofectamine 3000 and 2 µg of the plasmid. Hygromycin was used for the selection, and expansion of the TrkA-positive clones were performed using 200 µg/mL of Hygromycin. A clone with stable TrkA–HA expression was used for protein expression. Briefly, SH-SY5Y-TrkA-HA cells were seeded in T175cm2 flasks and grown until confluency. A total of 10 flasks were used for each experiment. Cells were detached using Accutase and washed twice with Dulbecco’s PBS through centrifugation. The final cell pellet was resuspended in 2 mL lysis buffer (FNN0011, Thermo Fisher Scientific, Gothenburg, Sweden) supplemented with protease and phosphatase inhibitors and 1 mM DTT. The cell suspension was sonicated with a probe sonicator at 40% amplitude for 2 × 5 s. The resulting homogenate was centrifuged for 10 min at 12,000× g. […] TR-FRET was measured using an excitation wavelength of 340 nm and an emission wavelength of 665 nm with an iD5 plate reader (Molecular Devices, Berkshire, RG41 5TS UK). […]
# T1 sequence (Q16620 32-822): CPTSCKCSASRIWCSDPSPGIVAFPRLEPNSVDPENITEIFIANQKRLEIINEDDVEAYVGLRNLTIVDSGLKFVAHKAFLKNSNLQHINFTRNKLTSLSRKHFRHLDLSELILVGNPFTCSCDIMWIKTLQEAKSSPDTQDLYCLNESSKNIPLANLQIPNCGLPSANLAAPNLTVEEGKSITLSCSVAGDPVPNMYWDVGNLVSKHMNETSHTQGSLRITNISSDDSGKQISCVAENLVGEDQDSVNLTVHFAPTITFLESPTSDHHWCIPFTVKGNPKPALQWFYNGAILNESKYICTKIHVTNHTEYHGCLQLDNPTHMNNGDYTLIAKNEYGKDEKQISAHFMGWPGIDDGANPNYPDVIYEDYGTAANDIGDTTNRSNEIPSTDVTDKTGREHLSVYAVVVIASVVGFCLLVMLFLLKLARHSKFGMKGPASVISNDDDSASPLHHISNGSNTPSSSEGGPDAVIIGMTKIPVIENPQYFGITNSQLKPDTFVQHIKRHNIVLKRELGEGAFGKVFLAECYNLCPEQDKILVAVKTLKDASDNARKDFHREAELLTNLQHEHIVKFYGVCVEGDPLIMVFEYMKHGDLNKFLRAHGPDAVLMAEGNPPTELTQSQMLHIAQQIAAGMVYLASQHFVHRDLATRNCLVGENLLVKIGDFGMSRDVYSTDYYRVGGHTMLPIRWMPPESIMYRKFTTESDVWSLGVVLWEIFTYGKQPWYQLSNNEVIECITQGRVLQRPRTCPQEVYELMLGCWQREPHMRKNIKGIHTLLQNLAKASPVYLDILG
smiles,measurement,setting,value
"Cc1cc(-n2c(=O)[nH]c(=O)n(C)c2=O)ccc1Oc1ccc(S(=O)(=O)C(F)(F)F)cc1 [ACD855, Toltrazuril-sulfone]",EC50,TrkB; PathHunter cell-based assay,3.2 µM
same,TrkB Effect (efficacy),TrkB; PathHunter cell-based assay,319%
same,activation of TrkB-receptor by compound itself,"TrkB; without ligand, 100% = 30 ng/mL ligand",45%
same,effect on Vmax(app) of TrkA,full-length TrkA-HA,significantly increase
